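A five-concentration, 48-hour dose response in 96-well plates underlies each endpoint, interpolated linearly between surrounding concentrations. Here, GI50 denotes the concentration required for 50% inhibition of growth.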 Calls of active or inactive are those of the source. Rule as the data show it: active = GI50 up to about 1.1 µM and inactive = higher.
Columns and labels:
Assay in all cases: growth of human tumour cells (NCI), 48 h
[1] = test system: 786-0
[2] = test system: A498
[3] = test system: BT-549
[4] = test system: HCT-116
[5] = test system: HOP-92
[6] = test system: K562
[7] = test system: KM12
[8] = test system: MCF7
[9] = test system: Malme-3M
[10] = test system: NCI-H460
[11] = test system: NCI-H522
[12] = test system: NCI/ADR-RES
[13] = test system: OVCAR-4
[14] = test system: PC-3
[15] = test system: SF-295
[16] = test system: SK-MEL-2
[17] = test system: SNB-19
[18] = test system: EKVX
[19] = test system: LOX IMVI
[20] = test system: HOP-62

Measured: GI50

CCN(CC)CCNc1nc2ccc([N+](=O)[O-])cc2[n+]([O-])n1
inactive: [1] 20.1 µM | [2] 28.4 µM | [3] 73.8 µM | [4] 15.7 µM | [5] 32 µM | [6] 13.2 µM | [7] 26.2 µM | [8] 2.24 µM | [9] 1.75 µM | [10] 10.4 µM | [11] 28.1 µM | [12] 24.3 µM | [13] 13.7 µM | [14] 20.1 µM | [15] 32.1 µM | [16] 15.2 µM | [17] 41.4 µM

COc1cc(C2OC[C@@H]3C(=O)OC[C@H]23)cc(O)c1OC (some centres undefined)
inactive: [1] > 100 µM | [2] > 100 µM | [3] > 100 µM | [18] > 100 µM | [4] > 100 µM | [5] > 100 µM | [6] > 100 µM | [7] > 100 µM | [19] > 100 µM | [8] > 100 µM | [10] > 100 µM | [11] > 100 µM | [12] > 100 µM | [13] > 100 µM | [14] > 100 µM | [15] > 100 µM | [16] > 100 µM | [17] > 100 µM

O=C(Nc1ccccc1F)c1cc2ccc(O)cc2o/c1=N\c1cccc(F)c1
inactive: [1] 15 µM | [2] 18.2 µM | [3] 15.3 µM | [18] 11.1 µM | [4] 11.1 µM | [20] 19 µM | [6] 4.42 µM | [7] 12.6 µM | [19] 9.89 µM | [8] 15.1 µM | [9] 21.6 µM | [10] 6.35 µM | [11] 2.37 µM | [12] 12.8 µM | [13] 9.86 µM | [14] 18.6 µM | [15] 4.3 µM | [16] 14.3 µM | [17] 15.9 µM

Cc1c/c(=N/NC(=O)c2ccncc2)n2nc(N)sc2n1
inactive: [1] > 100 µM | [2] > 100 µM | [3] > 100 µM | [18] > 100 µM | [4] > 100 µM | [20] > 100 µM | [5] > 100 µM | [6] > 100 µM | [7] > 100 µM | [19] > 100 µM | [8] > 100 µM | [10] > 100 µM | [11] > 100 µM | [12] > 100 µM | [13] > 100 µM | [14] > 100 µM | [15] > 100 µM | [16] > 100 µM | [17] > 100 µM

Nc1nc(Nc2ccccc2)sc1C(=O)c1ccco1
inactive: [1] 12.7 µM | [2] 17.8 µM | [3] 23.2 µM | [18] 15.3 µM | [4] 12.8 µM | [20] 27.5 µM | [5] 35.6 µM | [6] 8.55 µM | [7] 11 µM | [19] 15.9 µM | [8] 7.74 µM | [9] 26.9 µM | [10] 12.8 µM | [12] 23.9 µM | [13] 19.9 µM | [14] 22.6 µM | [16] 15.2 µM | [17] 19.9 µM

O=[N+]([O-])c1cc2c(cc1/C=N/n1c(CO)nc3ccccc31)OCO2
inactive: [1] > 100 µM | [2] > 100 µM | [3] > 100 µM | [18] > 100 µM | [4] > 100 µM | [20] > 100 µM | [5] > 100 µM | [6] > 100 µM | [7] > 100 µM | [19] > 100 µM | [8] > 100 µM | [9] > 100 µM | [10] > 100 µM | [12] > 100 µM | [13] > 100 µM | [14] > 100 µM | [15] > 100 µM | [16] > 100 µM | [17] > 100 µM

COc1ccccc1/C=C/c1ccnc2ccccc12
inactive: [1] 14.3 µM | [2] 15.4 µM | [3] 10.9 µM | [18] 11 µM | [4] 13.6 µM | [20] 16.1 µM | [5] 12.8 µM | [6] 10.7 µM | [7] 12.3 µM | [19] 16.3 µM | [8] 4.25 µM | [9] 11.7 µM | [10] 15.5 µM | [12] 11.3 µM | [13] 12.8 µM | [14] 14.3 µM | [15] 14.2 µM | [16] 16.4 µM | [17] 14.3 µM

CCOC(=O)Nc1c(C#N)[n+]([O-])c2cc(Cl)c(Cl)cc2[n+]1[O-]
inactive: [1] 15.6 µM | [2] 7.69 µM | [3] 15.6 µM | [4] 14 µM | [20] 45.7 µM | [5] 5.4 µM | [6] 16.3 µM | [7] 18.2 µM | [19] 6.1 µM | [8] 16.7 µM | [9] 15.2 µM | [10] 13.7 µM | [12] 20.7 µM | [13] 15.3 µM | [14] 7.28 µM | [15] 14.6 µM | [16] 17.7 µM | [17] 21.7 µM

COC(=O)C1CCC(=S)N1C(C)=O (centres undefined)
inactive: [1] > 100 µM | [2] > 100 µM | [3] > 100 µM | [18] > 100 µM | [4] > 100 µM | [20] > 100 µM | [5] > 100 µM | [6] > 100 µM | [7] > 100 µM | [8] > 100 µM | [9] > 100 µM | [10] > 100 µM | [11] > 100 µM | [12] > 100 µM | [13] > 100 µM | [14] > 100 µM | [15] > 100 µM | [16] > 100 µM | [17] > 100 µM

O=C(Nc1ccc(Cl)cc1Cl)C1C(=O)OC2(CCCCC2)OC1=O
inactive: [1] 12.2 µM | [2] 12.8 µM | [3] 10.7 µM | [18] 11.9 µM | [4] 6.08 µM | [20] 4.38 µM | [5] 6.82 µM | [6] 4.72 µM | [7] 6.43 µM | [19] 6.22 µM | [8] 7.29 µM | [10] 8.99 µM | [11] 12 µM | [12] 4.93 µM | [13] 9.18 µM | [14] 3.45 µM | [15] 2.92 µM | [16] 2.93 µM | [17] 5.26 µM

CCCCN(CCCC)C1(c2cc3ccccc3s2)CCCCC1.[O-][Cl+3]([O-])([O-])O
inactive: [1] 13.7 µM | [2] 19.3 µM | [3] 19.9 µM | [18] 21.1 µM | [4] 10.8 µM | [20] 15.1 µM | [5] 12.5 µM | [6] 16.7 µM | [7] 16 µM | [19] 13.9 µM | [8] 17.3 µM | [10] 13.5 µM | [11] 12.6 µM | [12] 17.7 µM | [13] 15.4 µM | [14] 17.9 µM | [15] 13.2 µM | [16] 19.8 µM | [17] 18.7 µM
